Measurements taken from patent US20250026769A1, “PAPD5 INHIBITORS AND METHODS OF USE THEREOF” (The Children's Medical Center Corporation, priority 2021, published 2025).
Read-outs that look alike come from different tables or passages of the source.

Columns and labels:
[1] = tested on: TERC 3′ ends in human CD19+ cells recovered from mice xenotransplanted with HSPCs; assay: TERC 3′ end processing in vivo in human CD19+ cells after xenotransplantation into NBSGW mice; design: species or system immunodeficient NBSGW mice with human HSPCs; conditions: for aberrant TERC oligo-adenylation in xenotransplanted PARN-deficient human blood cells: oral, RACE amplicon sequencing
Description: (§1) Example 168—Restoration of TERC 3′ end processing in vivo in human blood cells after xenotransplantation into immunodeficient mice. To determine the efficacy of orally administered exemplified compounds in primary human HSPCs and blood cells in restoring TERC processing in vivo, highly-efficient CRISPR-Cas9 ribonucleoprotein transduction was employed to disrupt the PARN gene in primary human CD34+ HSPCs or the control locus AAVS1. These genome-edited human HSPCs were xenotransplanted into immunodeficient NOD,B6.SCID Il2rg−/− KitW4l/W41 (NBSGW) mice, which engraft human HSPCs without exposure to radiation or chemotherapy. Six to ten weeks after xenotransplantation, exemplified compounds were administered for 4 to 7 days alongside controls. Thereafter, human hematopoietic cells were recovered from mouse bone marrow, and engraftment was analyzed by flow cytometry. Engrafted human hematopoietic cells were sorted for lineage markers, and CD19+ cells were used for analysis of restoration of TERC 3′ end processing by RNA-ligation mediated 3′ RACE.

[2] = target: T1, rPAPD5 (Homo sapiens, UniProt Q8NDF8); assay: differential scanning fluorimetry (DSF) binding and stabilization of rPAPD5; conditions: for ΔTm at 100 µM: read-out: ΔTm at 100 μM; for ΔTm at 1 µM: read-out: ΔTm at 1 μM
T1 construct: made in house
Procedure, shortened: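 Differential scanning fluorimetry was used to measure how test compounds bind and thermally stabilize rPAPD5. The reaction contained SYPRO orange dye diluted 1:5000 in […] of buffer with […], 25 mM Tris-HCl, 5 mM MgCl2 and 50 mM KCl. ΔTm was calculated relative to a DMSO control.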

[3] = tested on: hepatitis B surface antigen (HBSAg) from HepG2.2.15 cells, a hepatitis B virus-expressing cell line; assay: HBsAg ELISA in supernatant of HepG2.2.15 cells; assay type: cell-based; conditions: HepG2.2.15, 96 h
Procedure, shortened: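 HepG2.2.15 cells plated at 50,000/well, then exposed the next day to 3-fold compound dilutions from 100 μM to 333 pM, with DMSO vehicle as control. After 4 days at 37 °C, HBsAg in the supernatant was measured by ELISA. IC50 obtained by nonlinear fitting of averaged replicates.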

[4] = tested on: TERC 3′ end processing in DC patient iPSCs; assay: TERC 3′ end processing by RACE in DC patient / PARN-mutant iPSCs; assay type: cell-based, human; conditions: for minimal effective concentration: Homo sapiens, iPSC, read-out: iPSC-based RACE activity
Procedure, shortened: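 Activity binned by concentration giving effect in DC patient iPSCs: "+" at 1 μM, "++" above 1 nM and below 1 μM, "+++" below 1 nM; ND, not determined.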

[5] = tested on: telomere length in DC patient iPSCs; assay: telomere length / telomere elongation in DC patient iPSCs; assay type: cell-based, human; conditions: for minimal effective concentration: Homo sapiens, iPSC, read-out: iPSC-based Telomere length
Protocol: Compound 266A had activity ˜2-logs higher in the in vitro RNA oligoadenylation assay compared to the parental compound cmpd. 1, approximating the activity of RG7834 (FIG. 7). […] 1. Compounds 295A and 296A had activity 2-3 logs higher in DC patient iPSCs, showing TERC maturation at 1 nM, similar to RG7834 (FIG. 6). […] Referring to Table 1D, “+” refers to activity at 1 μM, “++” refers to activity above 1 nM and below 1 μM, and “+++” refers to activity at <1 nM, “ND” refers to not determined.

[6] = tested on: engraftment of CD45+, CD19+, CD34+ human blood cells; assay: engraftment of human blood cells in xenotransplanted mice by flow cytometry; assay type: in vivo, immunodeficient NBSGW mice with human HSPCs
Description: as §1

[7] = tested on: TERC 3′ end processing in primary CD34+ human hematopoietic stem and progenitor cells (HSPCs); assay: TERC 3′ end processing (RACE) in CRISPR/Cas9-engineered PARN-deficient primary CD34+ HSPCs; assay type: cell-based; conditions: for TERC 3′ end processing by RACE at 100 nM: day 5 (FIG. 40B); for TERC 3′ end processing by RACE at 1 μM: day 5 (FIG. 40A)
Description: Example 167—Restoration of TERC 3′ end processing in primary CD34+ human hematopoietic stem and progenitor cells (HSPCs). To determine the efficacy of exemplified compounds in a disease-relevant stem cell population, we employed a highly-efficient CRISPR-Cas9 ribonucleoprotein transduction strategy to disrupt the PARN gene in primary human CD34+ hematopoietic stem and progenitor cells (HSPCs), or the control locus AAVS1. FIGS. 40A and 40B show extended TERC forms in CRISPR-Cas9 engineered HSPCs deficient in PARN.

[8] = 32 mg/kg/dose twice daily for 11 doses, with 250 μM in drinking water
[9] = 100 μM test compound, shift vs DMSO control
[10] = 10 μM test compound (Table 2a), read-out: ΔTm at 10 μM
[11] = 10 μM test compound, shift vs DMSO control, read-out: ΔTm (Table 2, starred: the compound was tested at 10 μM)
[12] = patient iPSCs, concentration class at which activity is seen
[13] = 32 mg/kg/dose every other day for 4 days

T1 sequence (Q8NDF8 68-698 isoform Q8NDF8-5 limits assumed): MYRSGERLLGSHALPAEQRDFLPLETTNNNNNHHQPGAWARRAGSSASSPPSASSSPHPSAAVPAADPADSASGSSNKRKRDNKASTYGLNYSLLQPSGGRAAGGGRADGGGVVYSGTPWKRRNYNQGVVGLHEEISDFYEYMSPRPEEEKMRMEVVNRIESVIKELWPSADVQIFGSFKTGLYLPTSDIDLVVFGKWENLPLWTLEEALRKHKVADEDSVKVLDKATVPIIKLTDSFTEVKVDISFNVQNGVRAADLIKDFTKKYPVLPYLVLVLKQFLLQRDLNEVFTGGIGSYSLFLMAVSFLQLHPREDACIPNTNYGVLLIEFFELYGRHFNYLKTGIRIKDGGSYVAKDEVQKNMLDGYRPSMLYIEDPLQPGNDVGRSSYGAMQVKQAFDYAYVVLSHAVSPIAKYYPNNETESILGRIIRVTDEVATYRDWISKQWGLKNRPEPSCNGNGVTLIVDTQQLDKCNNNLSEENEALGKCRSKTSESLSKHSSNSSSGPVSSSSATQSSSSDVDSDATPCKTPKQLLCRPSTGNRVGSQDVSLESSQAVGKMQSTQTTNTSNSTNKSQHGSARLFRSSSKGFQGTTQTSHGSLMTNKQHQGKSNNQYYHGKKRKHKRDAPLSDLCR

Compound	IC50 [3] [nM]	TERC 3′ end processing by RACE at 100 nM [7]	TERC 3′ end processing by RACE at 1 μM [7]	ΔTm at 100 µM [2, 9] [°C]	ΔTm at 1 µM ([2]; 1 μM test compound (Table 2a)) [°C]	ΔTm at 10 µM [2, 10] [°C]	ΔTm at 10 µM [2, 11] [°C]	minimal effective concentration [4, 12] [µM]	minimal effective concentration [5, 12] [µM]	further results
O=C(O)c1cc(Cl)ccc1Nc1c(C2CCOCC2)cnc2ccc(Cl)cc12 [Compound 296A, 5-chloro-2-[(6-chloro-3-tetrahydropyran-4-yl-4-quinolyl)amino]benzoic acid]	5	maturation of TERC 3′ end processing	maturation of TERC 3′ end processing	–	–	–	–	–	–	TERC 3′ ends in human CD19+ cells (RACE) ([1]; 32 mg/kg/dose twice daily for 11 doses, with 250 μM in drinking water (FIG. 41A)): maturation of TERC 3′ ends; aberrant TERC oligo-adenylation in xenotransplanted PARN-deficient human blood cells [1, 8]: significantly reversed; ΔTm at 100 µM [2]: > 5 °C; concentration showing maturation of TERC 3′ end processing by RACE ([4]; DC patient iPSCs): 1 nM; concentration at which telomere elongation was observed ([5]; DC patient iPSCs, after 3-4 weeks of cell culture): 1 nM; engraftment of CD45+, CD19+, CD34+ human blood cells [6, 8]: no change in engraftment
O=C(O)c1cc(Cl)ccc1Nc1c(C2=CCOCC2)cnc2ccc(Cl)cc12 [Compound 297A, 5-chloro-2-[[6-chloro-3-(3,6-dihydro-2H-pyran-4-yl)-4-quinolyl]amino]benzoic acid]	42	–	–	> 5	–	–	–	–	–	TERC 3′ ends in human CD19+ cells (RACE) ([1]; 32 mg/kg/dose twice daily for 11 doses (FIG. 41D)): maturation of TERC 3′ ends; engraftment of CD45+, CD19+, CD34+ human blood cells ([6]; 32 mg/kg/dose twice daily for 11 doses): no change in engraftment
O=C(O)c1cc(Cl)ccc1Nc1c(N2CCC(F)(F)CC2)cnc2ccc(Cl)cc12 [Compound 340A, 5-chloro-2-[[6-chloro-3-(4,4-difluoro-1-piperidyl)-4-quinolyl]amino]benzoic acid]	50	maturation of TERC 3′ end processing	maturation of TERC 3′ end processing	–	> 5	> 5	> 5	< 0.001	< 0.001	–
O=C(O)c1cc(Cl)ccc1Nc1c(C2=CCC(F)(F)CC2)cnc2ccc(Cl)cc12 [Compound 344A, 5-chloro-2-[[6-chloro-3-(4,4-difluorocyclohexen-1-yl)-4-quinolyl]amino]benzoic acid]	600	–	–	–	> 5	> 5	> 5	< 0.001	< 0.001	TERC 3′ ends in human CD19+ cells (RACE) ([1]; 32 mg/kg/dose every other day for 4 days (FIG. 41B)): maturation of TERC 3′ ends; aberrant TERC oligo-adenylation in xenotransplanted PARN-deficient human blood cells [1, 13]: significantly reversed; engraftment of CD45+, CD19+, CD34+ human blood cells [6, 13]: no change in engraftment
O=C(O)c1cc(Cl)ccc1Nc1c(CN2CCOCC2)cnc2ccc(Cl)cc12 [Compound 371A, 5-chloro-2-[[6-chloro-3-(morpholinomethyl)-4-quinolyl]amino]benzoic acid]	145	maturation of TERC 3′ end processing	maturation of TERC 3′ end processing	> 5	> 5	> 5	–	0.001 to 1	< 0.001	–
O=C(O)c1cc(Cl)ccc1Nc1c(N2CCC(Cl)CC2)cnc2ccc(Cl)cc12 [Compound 393A, 5-chloro-2-((6-chloro-3-(4-chloropiperidin-1-yl)quinolin-4-yl)amino)benzoic acid]	282	maturation of TERC 3′ end processing	–	–	> 5	> 5	> 5	< 0.001	< 0.001	–
O=C1CCC(c2cnc3ccc(Cl)cc3c2Nc2ccc(Cl)cc2C(=O)O)CC1 [Compound 404A, 5-chloro-2-[[6-chloro-3-(4-oxocyclohexyl)-4-quinolyl]amino]benzoic acid]	35	maturation of TERC 3′ end processing	–	–	> 5	> 5	> 5	< 0.001	< 0.001	–
Cc1cc(Cl)cc2c(Nc3ccc(Cl)cc3C(=O)O)c(S(=O)(=O)N3CCSCC3)cnc12 [Compound 417A, 5-chloro-2-[(6-chloro-8-methyl-3-thiomorpholinosulfonyl-4-quinolyl)amino]benzoic acid]	71	–	maturation of TERC 3′ end processing	–	–	–	–	–	–	ΔTm at 10 µM ([2]; read-out: ΔTm (Table 2, starred: the compound was tested at 10 μM)): > 5 °C; ΔTm at 1 µM [2]: > 5 °C; ΔTm at 10 µM ([2]; read-out: ΔTm at 10 μM): > 5 °C; minimal effective concentration [4]: < 0.001 µM; minimal effective concentration [5]: < 0.001 µM
O=C(O)c1cc(Cl)ccc1Nc1c(S(=O)(=O)N2CCSCC2)cnc2c(Cl)cc(Cl)cc12 [Compound 420A, 5-chloro-2-[(6,8-dichloro-3-thiomorpholinosulfonyl-4-quinolyl)amino]benzoic acid]	100	–	maturation of TERC 3′ end processing	–	> 5	> 5	> 5	< 0.001	< 0.001	–
O=C(O)c1cc(Cl)ccc1Nc1c(CN2CCSCC2)cnc2ccc(Cl)cc12 [Compound 428A, 5-chloro-2-[[6-chloro-3-(thiomorpholinomethyl)-4-quinolyl]amino]benzoic acid]	22	–	maturation of TERC 3′ end processing	> 5	> 5	> 5	–	< 0.001	< 0.001	–
